From patent US11414436B2, “Non-coordinating anion type activators containing cation having large alkyl groups” (ExxonMobil Chemical Patents Inc., priority 2018, dated 2022)
“And” between values parts separate entries of the source, which are not always exact repeats. Equal values may be shown once.

What was measured:
[1] = Solubility studies of the activators (saturated solution in isohexane or methylcyclohexane); format: physicochemical
Procedure, shortened: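 Solid activators stirred in excess with isohexane or methylcyclohexane for several hours at 25 °C, filtered, and a filtrate aliquot evaporated and weighed. Emulsion-forming activators titrated with solvent until homogeneous, with activator mass found gravimetrically. Saturated concentration given in mM.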

[2] = RUN B: ethylene-octene polymerization in parallel pressure reactor, activator diluent toluene or methylcyclohexane; settings: ethylene-octene copolymerization; for activity: Cat 1 (MCN-1)
Protocol: RUN B: Polymerization in Parallel Pressure Reactor.
A series of ethylene-octene polymerizations were performed in the parallel pressure reactor according to the procedure described above. […] In a typical experiment an automated syringe was used to introduce into the reactor the following reagents, if utilized, in the following order: isohexane (0.35 mL), an isohexane solution of TNOAL scavenger (0.005 M, 60 μL), additional isohexane (0.35 mL), a toluene solution of the respective polymerization catalyst (150 μL, 0.4 mM, 20 nm [cat]/100 μL [toluene]), additional isohexane (0.35 mL), a toluene or methylcyclohexane solution of the respective activator (150 μL, 0.4 mM, (20 nm [act]/100 μL[ diluent])), then additional isohexane so that the total solvent volume for each run was 5 mL. Catalyst and activator were used in a 1:1 ratio. Each reaction was performed at a specified temperature range between 50 and 120° C., typically 95° C., while applying about 100 psig of ethylene (monomer) gas. Each reaction was allowed to run for about 1 hour (˜3600 seconds) or until approximately 20 psig of ethylene gas uptake was observed, at which point the reactions were quenched with air (˜300 psig). When sufficient polymer yield was attained (e.g., at least ˜10 mg), the polyethylene product was analyzed by Rapid GPC, described below.
In a typical experiment, the anilinium borate activators were combined with toluene or methylcyclohexane as diluent and introduced to the parallel, pressure reactor via syringe. By this mechanism of activator introduction, only well dissolved activators could be delivered to the reactor providing a means to discriminate between the polymerization performance of long chain soluble anilinium borates vs. conventional anilinium borates. Following addition of activator, the catalyst Cat 1 was introduced, via syringe as well-dissolved toluene solution and the polymerization was conducted per the methodology described above.

Compound	Solubility limit in i-hexane (mM at 25° C.) ([1]; isohexane) [mM]	Solubility limit in i-hexane (wt % at 25° C.) ([1]; isohexane) [wt %]	Solubility limit in MeCy (mM at 25° C.) ([1]; methylcyclohexane) [mM]	quantity of polymer obtained with methylcyclohexane as diluent ([2]; Cat 1, activator in methylcyclohexane)	activity ([2]; activator diluent MeCy (methylcyclohexane)) [kg/mmol/h]	activity ([2]; activator diluent Toluene, listed as C2)
CCCCCCCCCCCCCCCCCC[NH+](CCCCCCCCCCCCCCCCCC)c1ccc(C)cc1.Fc1c(F)c(F)c2c(F)c([B-](c3c(F)c(F)c4c(F)c(F)c(F)c(F)c4c3F)(c3c(F)c(F)c4c(F)c(F)c(F)c(F)c4c3F)c3c(F)c(F)c4c(F)c(F)c(F)c(F)c4c3F)c(F)c(F)c2c1F [DOdTH-BF28, 4-methyl-N,N-dioctadecylbenzenaminium-BF28]	120	29	160			
N,N-dimethylanilinium tetrakis(heptafluoronaphthalen-2-yl)borate [DMAH-BF28, reference compound]				insufficient for analysis	0.0	441.3 kg/mmol/h and 392.4 kg/mmol/h and 390.1 kg/mmol/h and 408.1 kg/mmol/h
